Test results taken from ChEMBL document CHEMBL5042544, “Discovery of a Potent and Selective ATAD2 Bromodomain Inhibitor with Antiproliferative Activity in Breast Cancer Models” (J Med Chem, 2022).
Calls of active or inactive are those of the source. The rule behind the calls is not given here.

Tests used:
EVSA-T = test: Antiproliferative activity against human EVSA-T cells expressing ATAD2 assessed as inhibition of colony formation at 0.01 to 10 uM measured after 14 to 21 days by AlamarBlue staining based colony formation assay; assay type: functional, cell-based; conditions: dose 0.01-10 µM, time 14-21 day
[1] = molecular target: SWI/SNF-related matrix-associated actin-dependent regulator of chromatin subfamily A member 2 (Homo sapiens, UniProt P51531); test: Binding affinity to human SMARCA2 bromodomain assessed as dissociation constant by BROMOscan method
[2] = molecular target: Bromodomain-containing protein 3 (Homo sapiens, UniProt Q15059); test: Binding affinity to human BRD3 bromodomain 1 assessed as residual activity at 300 nM by BROMOscan method relative to control
[3] = molecular target: Bromodomain-containing protein 4 (Homo sapiens, UniProt O60885); test: Binding affinity to human BRD4 bromodomain 1 assessed as residual activity at 300 nM by BROMOscan method relative to control
[4] = molecular target: E3 ubiquitin-protein ligase TRIM33 (Homo sapiens) (UniProt Q9UPN9); test: Binding affinity to human TRIM33 bromodomain assessed as residual activity at 300 nM by BROMOscan method relative to control
[5] = molecular target: Nucleosome-remodeling factor subunit BPTF (Homo sapiens, UniProt Q12830); test: Binding affinity to human FALZ bromodomain assessed as residual activity at 300 nM by BROMOscan method relative to control
SK-BR-3 = test: Antiproliferative activity against human SK-BR-3 cells expressing BRD1 assessed as inhibition of colony formation at 0.01 to 10 uM measured after 14 to 21 days by alamarBlue based colony formation assay; assay type: functional, cell-based; conditions: dose 0.01-10 µM, time 14-21 day
[6] = Distribution coefficient, logD of compound at pH 7.4; assay type: physicochemical; conditions: octanol/water
Homo sapiens = species on record: Homo sapiens; test: Selectivity ratio of IC50 for Inhibition of […] GST-ATAD2 BD (981 to 1108 residues) (unknown origin) expressed in Escherichia coli BL21 (DE3) to IC50 for Halo-tagged Histone H3.3 from Nanoluc-ATAD2 BD ([…] residues) (unknown origin) transfected in human HCT116 cells

Chain of E3 ubiquitin-protein ligase TRIM33 (Homo sapiens) (Q9UPN9 whole entry): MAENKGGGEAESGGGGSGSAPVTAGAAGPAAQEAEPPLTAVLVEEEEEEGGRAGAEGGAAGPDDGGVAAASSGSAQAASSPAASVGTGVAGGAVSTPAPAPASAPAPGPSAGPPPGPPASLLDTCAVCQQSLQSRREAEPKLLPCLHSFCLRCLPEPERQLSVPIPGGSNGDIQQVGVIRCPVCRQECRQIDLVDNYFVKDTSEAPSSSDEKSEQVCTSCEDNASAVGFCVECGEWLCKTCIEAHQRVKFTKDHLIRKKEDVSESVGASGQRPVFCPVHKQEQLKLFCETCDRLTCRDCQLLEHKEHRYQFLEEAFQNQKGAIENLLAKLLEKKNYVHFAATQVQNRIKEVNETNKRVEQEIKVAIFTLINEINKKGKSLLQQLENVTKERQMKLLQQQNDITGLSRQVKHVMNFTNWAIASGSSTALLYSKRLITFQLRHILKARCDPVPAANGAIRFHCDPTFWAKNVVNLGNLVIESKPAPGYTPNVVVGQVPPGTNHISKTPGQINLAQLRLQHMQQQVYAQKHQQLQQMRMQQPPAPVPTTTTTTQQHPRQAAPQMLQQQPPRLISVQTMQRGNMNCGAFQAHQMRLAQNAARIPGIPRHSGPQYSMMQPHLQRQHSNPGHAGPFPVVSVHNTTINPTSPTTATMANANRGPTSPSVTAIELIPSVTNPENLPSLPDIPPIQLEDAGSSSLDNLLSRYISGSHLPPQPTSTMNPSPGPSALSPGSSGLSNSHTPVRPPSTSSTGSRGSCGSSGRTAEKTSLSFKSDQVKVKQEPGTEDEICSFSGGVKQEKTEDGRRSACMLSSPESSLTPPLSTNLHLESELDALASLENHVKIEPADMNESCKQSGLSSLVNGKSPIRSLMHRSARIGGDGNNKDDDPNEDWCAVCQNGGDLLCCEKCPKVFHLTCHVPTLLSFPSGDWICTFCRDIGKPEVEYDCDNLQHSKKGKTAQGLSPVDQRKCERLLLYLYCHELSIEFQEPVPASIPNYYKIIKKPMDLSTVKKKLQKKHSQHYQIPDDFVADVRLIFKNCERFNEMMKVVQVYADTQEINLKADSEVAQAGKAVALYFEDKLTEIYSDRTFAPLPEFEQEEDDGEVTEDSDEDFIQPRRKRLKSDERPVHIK
Chain of SWI/SNF-related matrix-associated actin-dependent regulator of chromatin subfamily A member 2 (P51531 whole entry): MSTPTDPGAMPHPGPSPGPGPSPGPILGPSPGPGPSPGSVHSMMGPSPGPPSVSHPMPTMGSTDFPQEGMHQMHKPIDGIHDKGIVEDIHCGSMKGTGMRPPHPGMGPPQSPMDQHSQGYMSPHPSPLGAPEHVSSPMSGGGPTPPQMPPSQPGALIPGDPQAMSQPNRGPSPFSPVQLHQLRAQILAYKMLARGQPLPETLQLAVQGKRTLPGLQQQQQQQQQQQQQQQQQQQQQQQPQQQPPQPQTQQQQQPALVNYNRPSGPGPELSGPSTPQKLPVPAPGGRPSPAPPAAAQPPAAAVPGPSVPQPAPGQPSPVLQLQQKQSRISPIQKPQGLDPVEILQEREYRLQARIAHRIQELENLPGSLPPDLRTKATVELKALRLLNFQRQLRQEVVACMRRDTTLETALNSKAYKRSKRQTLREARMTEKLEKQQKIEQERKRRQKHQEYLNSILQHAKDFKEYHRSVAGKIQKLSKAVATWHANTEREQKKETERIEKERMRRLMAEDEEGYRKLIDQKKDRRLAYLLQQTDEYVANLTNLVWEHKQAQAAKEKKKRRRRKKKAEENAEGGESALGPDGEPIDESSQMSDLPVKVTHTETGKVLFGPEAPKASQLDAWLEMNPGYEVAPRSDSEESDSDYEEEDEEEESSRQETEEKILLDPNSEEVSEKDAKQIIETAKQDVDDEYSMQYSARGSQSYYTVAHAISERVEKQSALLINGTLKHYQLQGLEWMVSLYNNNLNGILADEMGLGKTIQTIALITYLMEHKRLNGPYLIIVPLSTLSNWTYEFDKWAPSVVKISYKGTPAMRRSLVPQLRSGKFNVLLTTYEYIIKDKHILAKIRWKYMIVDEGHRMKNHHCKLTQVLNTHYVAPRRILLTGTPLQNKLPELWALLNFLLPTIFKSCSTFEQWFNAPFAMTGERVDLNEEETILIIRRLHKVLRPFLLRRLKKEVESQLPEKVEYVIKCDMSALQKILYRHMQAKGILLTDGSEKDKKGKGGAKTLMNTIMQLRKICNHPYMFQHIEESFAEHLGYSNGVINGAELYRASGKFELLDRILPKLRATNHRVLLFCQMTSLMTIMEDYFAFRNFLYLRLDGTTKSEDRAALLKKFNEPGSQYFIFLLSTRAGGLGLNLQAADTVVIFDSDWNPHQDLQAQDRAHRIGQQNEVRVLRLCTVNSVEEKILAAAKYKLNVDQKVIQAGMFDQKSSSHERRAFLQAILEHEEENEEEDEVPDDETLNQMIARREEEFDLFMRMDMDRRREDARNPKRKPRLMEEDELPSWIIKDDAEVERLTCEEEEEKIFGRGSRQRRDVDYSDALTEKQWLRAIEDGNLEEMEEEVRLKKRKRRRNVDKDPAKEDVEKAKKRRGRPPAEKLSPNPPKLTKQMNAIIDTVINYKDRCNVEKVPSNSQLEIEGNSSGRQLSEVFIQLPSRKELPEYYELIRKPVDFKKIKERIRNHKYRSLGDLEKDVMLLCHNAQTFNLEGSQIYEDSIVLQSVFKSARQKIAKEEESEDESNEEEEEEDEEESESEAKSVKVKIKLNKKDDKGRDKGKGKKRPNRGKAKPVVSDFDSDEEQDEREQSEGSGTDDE
Chain of Bromodomain-containing protein 3 (Q15059 2-726 limits assumed): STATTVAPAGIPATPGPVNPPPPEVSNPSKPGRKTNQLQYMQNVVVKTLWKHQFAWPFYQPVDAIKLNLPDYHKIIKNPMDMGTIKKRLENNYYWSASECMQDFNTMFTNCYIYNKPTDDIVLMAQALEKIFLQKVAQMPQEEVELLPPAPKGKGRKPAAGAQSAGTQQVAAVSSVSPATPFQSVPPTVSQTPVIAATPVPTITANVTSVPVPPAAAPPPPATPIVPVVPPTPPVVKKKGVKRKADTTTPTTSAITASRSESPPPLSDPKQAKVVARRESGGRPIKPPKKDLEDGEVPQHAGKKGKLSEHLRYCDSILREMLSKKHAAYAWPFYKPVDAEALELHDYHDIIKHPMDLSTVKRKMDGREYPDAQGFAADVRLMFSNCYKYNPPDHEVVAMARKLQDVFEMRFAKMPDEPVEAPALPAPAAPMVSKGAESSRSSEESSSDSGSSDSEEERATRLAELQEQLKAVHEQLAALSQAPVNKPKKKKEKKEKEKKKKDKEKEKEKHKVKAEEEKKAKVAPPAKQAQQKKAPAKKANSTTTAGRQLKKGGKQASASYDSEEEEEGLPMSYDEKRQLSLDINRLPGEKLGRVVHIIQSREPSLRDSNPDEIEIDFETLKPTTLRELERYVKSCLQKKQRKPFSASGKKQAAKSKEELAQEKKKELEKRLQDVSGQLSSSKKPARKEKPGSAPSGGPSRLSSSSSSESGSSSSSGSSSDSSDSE

Compound: Cc1nnc2c(NC3CCN(CC(C)(C)F)CC3)cc(C(=O)N3[C@@H]4c5ccccc5C[C@H]3C(=O)N[C@@H]4C(C)C)nn12
- Activity (EVSA-T): Dose-Dependent Effect
- Kd [1]: > 3.16 µM
- Activity [2]: 90%
- Activity [3]: 86%
- Activity [4]: 96%
- Activity [5]: 53%
- Activity (SK-BR-3): inactive
- logD [6]: 3
- Ratio IC50 (Homo sapiens): 20
